# Reference: patent publication US10196369B2, “Spirocyclic EBI2 modulators” (Sanford Burnham Prebys Medical Discovery Institute, priority 2013, dated 2019)
# Biological target: EBI2 (Homo sapiens, UniProt P32249)
# Test: Cell-based luminescent assay of EBI2 modulation (7a,25-OHC stimulated)
# Conditions: 7a,25-OHC final assay concentration 80 nM, 60 minute incubation
# How it was run: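 Cells expressing EBI2 were plated overnight, then treated 60 min at 37 °C with compound (final 4-5 uM) plus 7a,25-OHC (80 nM final). Detection reagent was added for 60 min at 25 °C in the dark, with luminescence read-out. Values were normalized between neutral and stimulator controls and corrected for plate patterns.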
# EBI2, sequence (P32249 whole entry): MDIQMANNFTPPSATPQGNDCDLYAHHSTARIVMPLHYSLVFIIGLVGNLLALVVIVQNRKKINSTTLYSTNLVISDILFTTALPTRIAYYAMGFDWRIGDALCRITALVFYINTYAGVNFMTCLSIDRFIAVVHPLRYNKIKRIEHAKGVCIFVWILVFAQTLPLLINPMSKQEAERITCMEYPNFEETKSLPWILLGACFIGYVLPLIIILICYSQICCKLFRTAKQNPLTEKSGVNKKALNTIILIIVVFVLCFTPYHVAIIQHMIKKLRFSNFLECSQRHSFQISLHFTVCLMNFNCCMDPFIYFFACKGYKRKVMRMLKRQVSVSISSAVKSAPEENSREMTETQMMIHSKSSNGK
row,IC50 [nM],Molecule
1,100 to 500,"O=C(C#Cc1ccc(F)cc1)N1CCC2(CC1)CN(C(=O)c1ccc(Br)cc1)C2 [Compound C99, 1-{2-[(4-bromophenyl)carbonyl]-2,7-diazaspiro[3.5]non-7-yl}-3-(4-fluorophenyl)prop-2-yn-1-one]"
2,< 100,"O=C(c1ccc(C(F)(F)F)c(F)c1)N1CCC2(CC1)CCN(C(=O)c1cc3cc(Cl)ccc3[nH]1)CC2 [Compound C100, 5-chloroindol-2-yl 9-{[3-fluoro-4-(trifluoromethyl)phenyl]carbonyl}-3,9-diazaspiro[5.5]undec-3-yl ketone]"
3,500 to 5000,"O=C(C#Cc1ccc2c(c1)OCO2)N1CCC2(CC1)CN(C(=O)c1ccc(Br)cc1)C2 [Compound I1, 3-(2H-benzo[3,4-d]1,3-dioxolen-5-yl)-1-{2-[(4-bromophenyl)carbonyl]-2,7-diazaspiro[3.5]non-7-yl}prop-2-yn-1-one]"
4,< 100,"O=C(/C=C/c1ccc(Br)cc1)N1CCC2(CC1)CN(C(=O)c1ccc(Cl)cc1)C2 [Compound L1, (2E)-3-(4-bromophenyl)-1-{2-[(4-chlorophenyl)carbonyl]-2,7-diazaspiro[3.5]non-7-yl}prop-2-en-1-one]"
5,100 to 500,"bromophenyl)-1-{2-[(4-bromophenyl)carbonyl]-2,7-diazaspiro[3.5]non-7-yl}prop-2-yn-1-one [Compound C66]"
